Like-named read-outs stand apart in the source and are kept apart here.
Key:
[1] = test system: Enterococcus faecium LMG 9431; test: Broth microdilution antimicrobial assay (MIC1/2); type: cell-based
[2] = test system: Clostridium perfringens NCTC 8798; type: cell-based
[3] = test system: Staphylococcus aureus LMG 10147; test: Broth microdilution antimicrobial assay (MIC1/2); type: cell-based
[4] = test system: Enterococcus faecalis LMG 8222; test: Broth microdilution antimicrobial assay (MIC1/2); type: cell-based
[5] = test system: Streptococcus pyogenes LMG 15868; test: Broth microdilution antimicrobial assay (MIC1/2); type: cell-based
[6] = test system: Streptococcus pneumoniae LMG 21598; test: Broth microdilution antimicrobial assay (MIC1/2); type: cell-based
[7] = RP-HPLC retention time as measure of overall hydrophobicity; type: physicochemical; details: chromatographic, RP-HPLC (LC-MS system: Kinetex C18, 150 mm × 4.60 mm, 5 μm, 1.5 ml/min; gradient not stated at this place)
Protocol: Chemicals and general procedures are listed in the Supplementary Materials section. All procedures for the synthesis and purification of specific building blocks as well as solid-phase peptide synthesis, and cyclization release of the PsdA-analogs were carried out as described previously for the total synthesis of pseudodesmin A (1) and its enantiomer (2) ([De Vleeschouwer et al., 2014]). Practical details and relevant variations of the procedures for specific cases are collected in the Supplementary Materials section of this paper, together with full characterization of all fatty acid building blocks and analogs. The crude cyclic lipopeptides were purified using either semi-preparative or preparative RP-HPLC. Semi-preparative purification was performed on an Agilent 1100 series instrument using a Kromasil column (C18, 250 mm × 7.8 mm, 5 μm particle size). The analyses were executed with a flow rate of 3 ml/min and with the following solvent systems: H2O containing 0.1% HCOOH (A) and CH3CN (B). […] High-resolution mass spectra were recorded on an Agilent 6220A time-of-flight mass spectrometer, equipped with an Agilent ESI/APCI multimode source. […]

[8] = fluorescence permeability assays, model membranes, natural compounds; ref Geudens et al., 2017; cited from earlier work
Excerpt: We have previously reported the three-dimensional structure of the 2 neutral subgroup representatives, viscosinamide A (D^0) ([Geudens et al., 2014]) and pseudodesmin A (L^0) ([Sinnaeve et al., 2009a], [b]), while that of anionic WLIP (D^–) was already available from literature ([Han et al., 1992]). To avoid ambiguity, the three-dimensional structure is referred to hereafter as the ‘fold’ of a Ps-CLiP whereas the chemical (covalent) structure will simply be referred to as ‘structure’ as indicated in Figure 1C. In spite of the D/L switch in stereochemistry for Leu5, all have identical backbone ...

[9] = minimal concentration inhibiting growth by at least 50% vs untreated control, broth microdilution (CLSI), 0.016-32 μg/ml twofold dilutions, ~5 × 10^5 CFU/ml, 37°C, 24 h, OD 590 nm
[10] = minimal concentration inhibiting growth by at least 50% vs untreated control, broth microdilution (CLSI), Reinforced Clostridial Medium, 0.016-32 μg/ml twofold dilutions, ~5 × 10^5 CFU/ml, 37°C, 24 h, OD 590 nm

Compound	MIC1/2 E. faecium LMG 9431 [1] [µg/mL]	MIC1/2 C. perfringens NCTC 8798 [2] [µg/mL]	MIC1/2 S. aureus LMG 10147 [3] [µg/mL]	MIC1/2 E. faecalis LMG 8222 [4] [µg/mL]	MIC1/2 S. pyogenes LMG 15868 [5] [µg/mL]	MIC1/2 S. pneumoniae LMG 21598 [6] [µg/mL]	MIC1/2 E. faecium LMG 9431 [1, 9] [µg/mL]	MIC1/2 C. perfringens NCTC 8798 [2, 10] [µg/mL]	MIC1/2 E. faecalis LMG 8222 [4, 9] [µg/mL]	MIC1/2 S. pyogenes LMG 15868 [5, 9] [µg/mL]	MIC1/2 S. pneumoniae LMG 21598 [6, 9] [µg/mL]	MIC1/2 S. aureus LMG 10147 [3, 9] [µg/mL]	HPLC retention time (overall hydrophobicity) [7] [min]	C1/2 of membrane permeabilization [8] [µM]
CN[C@H](CC(C)C)C(=O)N[C@H]1C(=O)N[C@@H](CC(N)=O)C(=O)N[C@H]2C(=O)N[C@H]3C(=O)N[C@H](C(=O)N[C@H](C(=O)O)c4cc(O)cc(O)c4-c4cc3ccc4O)[C@H](O)c3ccc(c(Cl)c3)Oc3cc2cc(c3O[C@@H]2O[C@H](CO)[C@@H](O)[C@H](O)[C@H]2O[C@H]2C[C@](C)(N)[C@H](O)[C@H](C)O2)Oc2ccc(cc2Cl)[C@H]1O [Vancomycin]	1	0.25	2	4	0.5	0.25								
Daptomycin							16	8	>32	2	4			
Pseudodesmin A [compound 1]							4	2	4	1	2	4	7.4	~3.7
viscosin														~4.9

From article PMC7187754, “Identification of the Molecular Determinants Involved in Antimicrobial Activity of Pseudodesmin A, a Cyclic Lipopeptide From the Viscosin Group” (Frontiers in Microbiology, 2020)
